# Measurements: patent publication US9226928B2, “Spirocyclic isoxazoline parasiticidal combinations” (Zoetis Services LLC, priority 2012, dated 2016)
# Like-named read-outs stand apart in the source and are kept apart here.
# What was measured:
# [1] = tested on: tick (O. turicata, Zoetis strain); experiment: In-vitro tick feeding assay; format: cell-based, Ornithodoros turicata; settings: for MED (lowest dose to cause paralysis ≧50%): at 24, 28, and 72 hours post feeding
# [2] = tested on: Dirofilaria immitis microfilariae (MF), Michigan strain; experiment: In vitro motility assay, D. immitis microfilariae
# Procedure: Antiparasitic compounds were dissolved in DMSO and were spotted into the well of a 384 well microtiter plate. Nematodes in a buffered solution were added to the plates and motility measured at 96 hours for the H. contortus strains and 72 hours for D. immitis. […] MED was subjective based on visual assessment using light microscopy and was the lowest dose to cause a significant decrease in motility. Concentrations at ½ log below the MED were used alone and in combination and were read on the LemnaTec Scanalyzer to provide a quantitative percent motility compared to the negative control.
# Material and method for the Dirofilaria immitis in vitro assay: Dirofilaria immitis MF were purified from microfilaremic canine blood by erythrocyte lysis and filtration and maintained in a cell culture media fortified with fetal bovine serum and antibiotics. […] The motility assessment was performed after 72 hours of incubation at 37° C. and 5% CO2 on a LemnaTec Scanalyzer which determined motility of the MF by image analysis.
# [3] = tested on: D. immitis (L3 inoculation, adult worm recovery); experiment: Prevention of heartworm disease in dogs; settings: in vivo, po
# [4] = Combination pharmacokinetics in fed dogs; settings: dog, in vivo, sampling to 28 days
# C. felis fleas = experiment: Efficacy against fleas in dogs; settings: all time points (Days 1-35); same groups
# Procedure: Each dog was infested with approximately 100 unfed viable adult C. felis fleas on Days −1, 6, 13, 20, 27, and 34. Efficacy was assessed by comb counts of live fleas on Days 1, 7, 14, 21, 28, and 35. Efficacy was determined as the % reduction in geometric mean live flea counts versus placebo.
# flea (C. felis) = experiment: In-vitro flea feeding assay; format: cell-based, Ctenocephalides felis; settings: for lowest MED alone (lowest dose to cause mortality ≧50%) / control MED dose levels alone (triple combination assay): compound alone; for lowest MED alone (lowest dose to cause mortality ≧50%): 24 hours blood feeding; for control MED dose levels alone (triple combination assay): controls of the triple combination assay
# [5] = tested on: Haemonchus contortus L3 susceptible strain; experiment: In vitro motility assay, H. contortus L3 susceptible strain; format: cell-based
# [6] = minimum efficacious dose, visual motility assessment, 72 hours
# [7] = vs untreated control, 72 hours, LemnaTec, moxidectin 3.3 μM, pyrantel 33 μM, Compound A 10 μM, alone or combined (triple row prints 100 μM Compound A)
# [8] = minimum efficacious dose, visual motility assessment, 96 hours
# [9] = vs untreated control, 96 hours, LemnaTec, moxidectin 0.1 μM, pyrantel 10 μM, Compound A 100 μM, alone or combined
SMILES,MED (lowest dose to cause paralysis ≧50%) [1] [µg/mL],% Motility [2] [%],D. immitis MED [2] [µM],geometric mean adult D. immitis worm count [3],"AUC ([4]; dosed alone: Compound A 2 mg/kg, moxidectin 0.25 μg/kg, pyrantel pamoate 5 mg/kg) [µg·h/mL]",AUC ([4]; the three compounds dosed simultaneously) [µg·h/mL],Percentage reductions in geometric and arithmetic mean live flea counts compared with placebo (C. felis fleas) [%],lowest MED alone (lowest dose to cause mortality ≧50%) (flea (C. felis)) [mM],control MED dose levels alone (triple combination assay) (flea (C. felis)) [mM],% Motility [5] [%],H. contortus L3 susceptible MED [5] [µM],"D. immitis MED [2, 6] [µM]","% Motility [2, 7] [%]","H. contortus L3 susceptible MED [5, 8] [µM]","% Motility [5, 9] [%]",effect on ticks ([1]; at a rate of 3 or 30 ug/mL),effect on fleas (flea (C. felis); highest dose tested (300 mM))
"CS(=O)(=O)CC(=O)N1CC2(C1)OCc1cc(C3=NO[C@@](c4cc(Cl)c(F)c(Cl)c4)(C(F)(F)F)C3)ccc12 [Compound A, (S)-1-(5′-(5-(3,5-dichloro-4-fluorophenyl)-5-(trifluoromethyl)-4,5-dihydroisoxazol-3-yl)-3′H-spiro[azetidine-3,1′-isobenzofuran]-1-yl)-2-(methylsulfonyl)ethanone]",0.01,50.9,33,30.3 worms recovered from each dog,202,206,100,0.0001,0.3,76.0,>100,–,–,–,–,–,–
"CO/N=C1\C[C@]2(C[C@@H]3C[C@@H](C/C=C(\C)C[C@@H](C)/C=C/C=C4\CO[C@@H]5[C@H](O)C(C)=C[C@@H](C(=O)O3)[C@]45O)O2)O[C@H](/C(C)=C/C(C)C)[C@H]1C [Moxidectin, moxidectin]",0.03,–,–,–,–,–,–,0.01,10,–,–,10,62.0,0.3,95.0,–,–
"CN1CCCN=C1/C=C/c1cccs1 [Pyrantel, pyrantel pamoate]",–,–,–,–,–,–,–,–,> 300,–,–,100,77.8,33,95.6,no effect,no effect
